One substance from PMC7842274 (ACS catalysis, 2020) can be followed below.

One experiment deals with Δ80PmHS2 (Pasteurella multocida, UniProt Q5SGE1). The experiment can be described thus: apparent kinetics. The experiment is classed as biochemical. The note with it: alpha1-4-GlcNAcT activity (acceptor; donor not stated in main text).
For another experiment, the target named is PmHS2 (Pasteurella multocida, UniProt Q5SGE1). The experiment can be described thus: apparent kinetics. The format is biochemical. To be noted: alpha1-4-GlcNAcT activity (acceptor; donor not stated in main text).

Take GlcAβ2AA: the Km (usually the concentration of substrate that gives half-maximal velocity) at Δ80PmHS2 is 5.3 ± 0.7 mM; at PmHS2 it was 4 ± 0.6 mM.
